Laboratory results: US20040024024A1, “Aromatic sulfone hydroxamates and their use as protease inhibitors” (priority 2001, published 2004)
pIC50: −log10 of the molar value.

Experiments:
Experiment in all cases: In vitro MMP inhibition, IC50 determination (fluorogenic substrate I)
Format in all cases: biochemical
[1] = biological target: T1, Human recombinant MMP-1 (Homo sapiens, UniProt P03956)
T1 construct: made in house; host or cells: MMP-1-transfected HT-1080 cells (spent media)
T1 sequence (P03956 100-469): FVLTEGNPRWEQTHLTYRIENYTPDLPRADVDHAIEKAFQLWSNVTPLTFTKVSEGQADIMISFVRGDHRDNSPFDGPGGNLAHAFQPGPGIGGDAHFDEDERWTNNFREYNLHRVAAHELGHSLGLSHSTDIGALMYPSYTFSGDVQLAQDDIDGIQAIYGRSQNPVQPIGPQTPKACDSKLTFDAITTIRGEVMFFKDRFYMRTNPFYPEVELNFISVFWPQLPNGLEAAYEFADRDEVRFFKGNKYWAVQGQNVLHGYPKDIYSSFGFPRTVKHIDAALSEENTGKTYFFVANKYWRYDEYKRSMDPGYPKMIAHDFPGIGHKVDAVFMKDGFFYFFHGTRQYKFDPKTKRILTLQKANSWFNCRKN
Procedure: (§1) Several hydroxamates and salts thereof were analyzed in in vitro assays to determine their ability to inhibit the MMP cleavage of peptide substrates. Inhibition (Ki) and IC50 constants were calculated from the assayed hydroxamate-MMP interactions.
(§2) Human recombinant MMP-1, MMP-2, MMP-9, MMP-13, and MMP-14 were used in this assay. All enzymes were prepared in Assignee's laboratories following usual laboratory procedures. Protocols for the preparation and use of these enzymes are available in the scientific literature. See, e.g., Enzyme Nomenclature (Academic Press, San Diego, Calif., 1992) (and the citations therein). See also, Frije et al., J. Biol. Chem., 26(24), 16766-73 (1994).
The MMP-1 proenzyme was purified from the spent media of MMP-1-transfected HT-1080 cells provided by Dr. Harold Welgus of Washington University (St. Louis, Mo.). The protein was purified on a zinc chelating column.
(§3) All MMPs were activated using 4-aminophenylmercuric acetate (“APMA”, Sigma Chemical, St. Louis, Mo.) or trypsin. MMP-9 also was activated using human recombinant MMP-3 (purified in Assignee's laboratory following standard cloning and purification techniques).
(§4) Two fluorogenic, methoxycoumarin-containing polypeptide substrates were used in the MMP inhibition assays:
(§5) MCA-ProLeuGlyLeuDpaAlaArgNH2 (I)
(§6) Here, “Dpa” is 3-(2,4-dinitrophenyl)-L-2,3-diaminopropionyl group, and “MCA” is 7-methoxycoumarin-4-yl acetyl. Substrate (I) was purchased from Baychem (Redwood City, Calif.), and substrate II was prepared Assignee's laboratory. Substrate I was used in the IC50 determination assays, while substrate II was used in the Ki determination assays. In the absence of MMP inhibitory activity, either substrate is cleaved at the Gly-Leu peptide bond. This cleavage separates the highly fluorogenic peptide from the 2,4-dinitrophenyl quencher, thus resulting in increase of fluorescent intensity.
(§7) The stock solutions of the assayed hydroxamates (or salts thereof) were prepared in 1% dimethyl sulfoxide (DMSO). These stock solutions were diluted in Buffer A (100 mM Tris-HCl, 100 mM NaCl, 10 mM CaCl2, 0.05% polyoxyethylene 23 lauryl ether, pH 7.5) to obtain solutions with different hydroxamate concentrations, i.e., assay solutions with different concentrations of the assayed MMP inhibitory compound. The experiment controls contained the same amount of Buffer A/DMSO as the assayed sample, but contained no hydroxamate (or salt thereof).
(§8) The assays from which the IC50 determinations were made were performed as follows. The MMPs were activated with either trypsin or APMA (4-aminophenylmercuric acetate, Sigma Chemical, St. Louis, Mo.). The assayed hydroxamate samples were, incubated in Microfluorrm White Plates (Dynatech, Chantilly, VA) and analyzed on a Perkin Elmer L550 plate reader (Norwalk, Conn.). The excitation wavelength was 328 nm, and the emission wavelength—415 nm. All samples (assayed hydroxamates and controls) were incubated in separate plates at room temperature in the presence of 4 μM of MMP substrate (I). As stated in the previous paragraph, samples containing varying concentrations of the same assayed hydroxamate were prepared. Inhibition was measured as a reduction in fluorescent intensity as a function of MMP inhibitor concentration.

[2] = biological target: T2, Human recombinant MMP-2 (Homo sapiens, UniProt P08253)
T2 construct: made in house; host or cells: MMP-2-transfected p2AHT2 cells
T2 sequence (P08253 110-660): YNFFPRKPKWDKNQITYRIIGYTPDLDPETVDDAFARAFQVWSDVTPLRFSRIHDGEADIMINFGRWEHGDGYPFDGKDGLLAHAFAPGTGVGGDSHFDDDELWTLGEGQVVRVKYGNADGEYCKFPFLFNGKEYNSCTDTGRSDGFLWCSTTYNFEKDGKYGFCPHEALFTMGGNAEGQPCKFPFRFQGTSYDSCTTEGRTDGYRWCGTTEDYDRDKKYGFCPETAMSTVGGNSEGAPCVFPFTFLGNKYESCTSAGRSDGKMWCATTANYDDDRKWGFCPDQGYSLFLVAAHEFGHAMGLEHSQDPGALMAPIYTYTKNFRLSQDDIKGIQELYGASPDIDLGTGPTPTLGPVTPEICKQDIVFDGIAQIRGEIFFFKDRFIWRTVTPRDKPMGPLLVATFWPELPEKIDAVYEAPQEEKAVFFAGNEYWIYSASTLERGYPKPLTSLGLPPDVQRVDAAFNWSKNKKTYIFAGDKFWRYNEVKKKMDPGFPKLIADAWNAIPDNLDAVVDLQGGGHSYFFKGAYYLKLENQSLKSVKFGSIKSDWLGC
Method in brief: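 APMA- or trypsin-activated recombinant MMP-2 was incubated at room temperature with serial inhibitor dilutions in Tris buffer pH 7.5 (100 mM NaCl, 10 mM CaCl2, 0.05% Brij), with DMSO from 1% stocks, and 4 μM substrate I. Cleavage was read by fluorescence at 328/415 nm; IC50 was taken from the loss of fluorescence versus inhibitor concentration.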

[3] = biological target: T3, Human recombinant MMP-9 (Homo sapiens, UniProt P14780)
T3 construct: made in house; host or cells: MMP-9-transfected HT1080 cells (spent media)
Procedure: as §1, §2
The MMP-9 proenzyme was purified by gelatin Sepharose chromatography from spent media of MMP-9-transfected HT1080 cells provided by Dr. Howard Welgus of Washington University (St. Louis, Mo.).
as §3, §4, §5, §6, §7, §8

[4] = biological target: T4, Human recombinant MMP-13 (Homo sapiens, UniProt P45452)
T4 construct: made in house; host or cells: baculovirus / insect cells
Method in brief: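 Fluorescence at 415 nm (excitation 328 nm) reports Gly-Leu cleavage of 4 μM quenched methoxycoumarin peptide substrate I. Human recombinant MMP-13, activated by trypsin or APMA, was incubated at room temperature with varied inhibitor concentrations in pH 7.5 Tris/NaCl/CaCl2 buffer; IC50 derived from reduced fluorescence.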

[5] = biological target: T5, Human recombinant MMP-14 (Homo sapiens, UniProt P50281)
T5 construct: The catalytic domain enzyme was expressed in E. coli inclusion bodies, solubilized in urea; made in house
Procedure: as §1, §2
The MMP-14 full length cDNA was provided by Dr. Gregory Goldberg of Washington University (St. Louis, Mo.). The catalytic domain enzyme was expressed in E. coli inclusion bodies, solubilized in urea, purified on a preparative […] reverse phase HPLC column, and then refolded in the presence of zinc acetate and purified for use.
as §3, §4, §5, §6, §7, §8

[6] = value outside parentheses (Ki in parenthesis)

T3 sequence (P14780 107-707 limits assumed): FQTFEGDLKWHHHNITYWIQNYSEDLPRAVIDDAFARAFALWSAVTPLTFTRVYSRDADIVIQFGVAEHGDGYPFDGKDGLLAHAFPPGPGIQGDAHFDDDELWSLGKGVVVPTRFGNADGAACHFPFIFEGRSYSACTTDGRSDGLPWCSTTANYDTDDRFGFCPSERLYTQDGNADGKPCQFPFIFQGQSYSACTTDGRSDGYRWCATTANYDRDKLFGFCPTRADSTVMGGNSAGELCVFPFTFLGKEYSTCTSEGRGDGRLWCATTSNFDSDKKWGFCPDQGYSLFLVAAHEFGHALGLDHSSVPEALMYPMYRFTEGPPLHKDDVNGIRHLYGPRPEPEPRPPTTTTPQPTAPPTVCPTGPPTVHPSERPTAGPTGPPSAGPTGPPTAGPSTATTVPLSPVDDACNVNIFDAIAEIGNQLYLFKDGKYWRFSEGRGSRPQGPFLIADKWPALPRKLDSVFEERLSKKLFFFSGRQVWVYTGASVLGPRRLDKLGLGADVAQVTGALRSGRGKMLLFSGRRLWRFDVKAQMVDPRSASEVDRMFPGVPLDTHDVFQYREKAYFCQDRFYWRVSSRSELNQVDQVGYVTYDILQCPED

Row | Compound | pIC50 [1, 6] | pIC50 [2, 6] | pIC50 [4, 6] | further results
1 | O=C1N(CCCOc2ccc(S(=O)(=O)C3(C(=O)NO)CCOCC3)cc2)CCN1c1ccc(F)cc1 [Example 195] |  |  |  | pIC50 ([1]; value outside parenthesis): 5.36; pIC50 ([2]; value outside parenthesis): 7.69; pIC50 ([3]; value outside parenthesis): 7.34; pIC50 ([4]; value outside parenthesis): 8.12; pIC50 ([5]; value outside parenthesis): 5.56
2 | CC(C)=CC1C(COc2ccc(S(=O)(=O)C3(C(=O)NO)CCOCC3)cc2)C1(C)C (centres unmarked) [Example 471] | < 5.00 | 6.57 | 6.92 | 
3 | CC(CCOc1ccc(S(=O)(=O)C2(C(=O)NO)CCOCC2)cc1)CC(C)(C)C (centres unmarked) [Example 469] | < 5.00 | 6.84 | 7.22 | 
4 | O=C(NO)C1(S(=O)(=O)c2ccc(OCCOCc3cccnc3)cc2)CCOCC1 [Example 517] |  |  |  | pIC50 ([1]; value outside parentheses): < 5.00; pIC50 ([2]; value outside parentheses): 7.46; pIC50 ([3]; value outside parentheses): 6.86; pIC50 ([5]; value outside parentheses): < 5.00
5 | COc1ccc(SCCCCOc2ccc(S(=O)(=O)C3(C(=O)NO)CCOCC3)cc2)cc1 [Example 429] |  | 8.19 | 9.30 | pIC50 [3, 6]: < 5.00; pIC50 [5, 6]: < 5.00
6 | CC1CCCCC1COc1ccc(S(=O)(=O)C2(C(=O)NO)CCOCC2)cc1 (centres unmarked) [Example 477] | 5.89 | 8.82 | 8.70 | 
7 | CC(C)OCCCNc1ccc(S(=O)(=O)C2(C(=O)NO)CCOCC2)cc1 [Example 461] | < 5.00 | 5.66 | 6.23 | 
8 | CC(=O)c1ccc(OCCOc2ccc(S(=O)(=O)C3(C(=O)NO)CCOCC3)cc2)cc1 [Example 659] |  |  |  | pIC50 ([1]; value outside parentheses): < 5.00; pIC50 ([2]; value outside parentheses): 8.41; pIC50 ([3]; value outside parentheses): 7.33; pIC50 ([4]; value outside parentheses): 9.39
9 | CCCCCN(C)c1ccc(S(=O)(=O)C2(C(=O)NO)CCOCC2)cc1 [Example 459] | < 5.00 | 6.15 | 6.17 | 
10 | O=C(NO)C1(S(=O)(=O)c2ccc(OCCOCc3cccnc3)cc2)CCOCC1 [Example 518] |  |  |  | pIC50 ([1]; value outside parentheses): < 5.00; pIC50 ([2]; value outside parentheses): 7.58; pIC50 ([3]; value outside parentheses): 6.94; pIC50 ([5]; value outside parentheses): 6.01
11 | O=C1CN(c2ccccc2)C(=O)N1CCCOc1ccc(S(=O)(=O)C2(C(=O)NO)CCOCC2)cc1 [Example 174] |  |  |  | pIC50 ([1]; value outside parenthesis): < 5.00; pIC50 ([3]; value outside parenthesis): 5.40; pIC50 ([4]; value outside parenthesis): 8.28; pIC50 ([5]; value outside parenthesis): < 5.00
12 | CC(C)(CCc1ccccc1)Oc1ccc(S(=O)(=O)C2(C(=O)NO)CCOCC2)cc1 [Example 468] | < 5.00 | 5.60 | 5.82 | 
13 | CN(C)c1ccc(C(=O)CCCCOc2ccc(S(=O)(=O)C3(C(=O)NO)CCN(C4CC4)CC3)cc2)cc1 [Example 267] |  |  |  | pIC50 ([1]; value outside parenthesis): < 5.00; pIC50 ([2]; value outside parenthesis): 7.73; pIC50 ([3]; value outside parenthesis): 6.97; pIC50 ([5]; value outside parenthesis): < 5.00
14 | O=C1CN(c2ccccc2)C(=O)N1CCCOc1ccc(S(=O)(=O)C2(C(=O)NO)CCOCC2)cc1 [Example 263] |  |  |  | pIC50 ([3]; value outside parenthesis): 5.49; pIC50 ([4]; value outside parenthesis): 8.42
15 | O=C(Cc1cccs1)NCCOc1ccc(S(=O)(=O)C2(C(=O)NO)CCOCC2)cc1 [Example 617] |  |  |  | pIC50 ([2]; value outside parentheses): 9.10; pIC50 ([3]; value outside parentheses): 6.38; pIC50 ([4]; value outside parentheses): 9.22; pIC50 ([5]; value outside parentheses): 5.38
16 | CN(CCCC(=O)O)c1ccc(S(=O)(=O)C2(C(=O)NO)CCOCC2)cc1 [Example 457] | < 5.00 | < 5.00 | < 5.00 | 
17 | O=C(NO)C1(S(=O)(=O)c2ccc(OCCCOCc3cc(C(F)(F)F)cc(C(F)(F)F)c3)cc2)CCOCC1 [Example 454] | < 5.00 | 6.78 | 7.57 | 
18 | COC(C)(C)CCCC(C)CCOc1ccc(S(=O)(=O)C2(C(=O)NO)CCOCC2)cc1 (centres unmarked) [Example 474] | < 5.00 | 7.92 | 8.52 | 
19 | COC(=O)CCCN(C)c1ccc(S(=O)(=O)C2(C(=O)NO)CCOCC2)cc1 [Example 458] | < 5.00 | 5.46 | 5.85 | 
20 | COc1cccc(SCC(C)(C)COc2ccc(S(=O)(=O)C3(C(=O)NO)CCOCC3)cc2)c1 [Example 436] | < 5.00 | 5.82 | 7.00 | 
21 | CC(C)(COc1ccc(S(=O)(=O)C2(C(=O)NO)CCOCC2)cc1)CSc1ccc(OC(F)(F)F)cc1 [Example 435] | < 5.00 | < 5.00 | 6.30 | 
22 | CC(C)=CCCC(C)CCOc1ccc(S(=O)(=O)C2(C(=O)NO)CCOCC2)cc1 (centres unmarked) [Example 470] | < 5.00 | 8.15 | 8.52 | 
